“Also recorded” adds a separate entry of the source.
How the values were obtained:
[1] = Stability of NAG in fermentation at 37 C and pH 7.0; assay type: physicochemical; details: after cessation of glucose feed at 37 C and pH 7.0
Text: The use of lower temperature and pH were key factors in stabilizing the GLcN fermentation, primarily due to the labile nature of GLcN at higher pH and temperature. However, it was shown that NAG was stable at neutral pH. Fermentation for NAG production was operated in the pH range of 6.7 to 7.0 throughout the program.

[2] = Degradation in hydrochloric acid at 90-100 C based on ammonia formation; assay type: physicochemical; details: 30% hydrochloric acid, 90 C, 3 hours
Description: Glucosamine degradation was examined at 90° C. and 100° C. using 5% and 10% glucosamine hydrochloride (w/w) with 12% and 20% hydrochloric acid by weight. Samples were incubated from 1-24 hours and assayed enzymatically for ammonia using glutamate dehydrogenase. […] Glucosamine degradation is based on ammonia formation.
N-acetylglucosamine was hydrolyzed to glucosamine at 90° C. using the hybridization oven. The reaction was carried out inside a screw capped glass tube. The 30% hydrochloric acid (30 g) was preincubated at 90° C. for 1 hour. After this 10 g solid N-acetylglucosamine was added, quickly dissolved, and a To sample taken. Samples were taken at 30-minute intervals over the next three hours. […] Samples were analyzed for ammonia enzymatically.

[3] = Solubility of N-acetylglucosamine in water miscible solvents; assay type: physicochemical; details: IPA, ethanol, methanol, acetone, tetrahydrofuran, dimethylsulfoxide, dimethylformamide, dioxane, acetonitrile
Text: Recovering N-acetylglucosamine-containing solids from the fermentation broth can be enhanced by contacting N-acetylglucosamine in the broth with a water miscible solvent. […] Therefore, by introduction of such a water miscible solvent into the broth, the N-acetylglucosamine will become less soluble and will further recovery.

[4] = Stability of N-acetylglucosamine in M9A medium
Description: The stability of N-acetylglucosamine was tested in an experiment similar to the glucosamine degradation studies. The stability of 80 and 40 g l^−1 N-acetyl glucosamine at pH 5.5 and 7.0 was monitored in medium M9A-without glucose over a period of two days.

[5] = Heat stability of purified solid N-acetylglucosamine at 105 C; assay type: physicochemical; details: 98% pure sample, 2 hours at 105 C
E. coli 7107-18 = assay: Effects of N-acetyl glucosamine on E. coli 7107-18; assay type: cell-based; details: 62 g/L N-acetyl glucosamine in M9A-glucose (40 g/L), also medium pre-incubated more than eight hours
Text: Cells were inoculated into […]-glucose (40 g/L) containing 62 g/L N-acetyl glucosamine.

[6] = target: glucosamine N-acetyltransferase (Saccharomyces cerevisiae, UniProt P43577); assay: Product inhibition of glucosamine N-acetyltransferase; assay type: biochemical
Sequence of glucosamine N-acetyltransferase (P43577 whole entry): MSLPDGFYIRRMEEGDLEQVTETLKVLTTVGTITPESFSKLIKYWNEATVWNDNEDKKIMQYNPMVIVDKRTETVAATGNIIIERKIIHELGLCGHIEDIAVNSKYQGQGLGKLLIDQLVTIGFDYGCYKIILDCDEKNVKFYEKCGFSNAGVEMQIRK

[7] = target: phosphoglucoisomerase (Pgi) (Escherichia coli, UniProt P0A6T1); assay: Effect of phosphorylated amino sugars on phosphoglucoisomerase activity; assay type: biochemical; details: in vitro, FIG. 15
Sequence of phosphoglucoisomerase (Pgi) (P0A6T1 whole entry): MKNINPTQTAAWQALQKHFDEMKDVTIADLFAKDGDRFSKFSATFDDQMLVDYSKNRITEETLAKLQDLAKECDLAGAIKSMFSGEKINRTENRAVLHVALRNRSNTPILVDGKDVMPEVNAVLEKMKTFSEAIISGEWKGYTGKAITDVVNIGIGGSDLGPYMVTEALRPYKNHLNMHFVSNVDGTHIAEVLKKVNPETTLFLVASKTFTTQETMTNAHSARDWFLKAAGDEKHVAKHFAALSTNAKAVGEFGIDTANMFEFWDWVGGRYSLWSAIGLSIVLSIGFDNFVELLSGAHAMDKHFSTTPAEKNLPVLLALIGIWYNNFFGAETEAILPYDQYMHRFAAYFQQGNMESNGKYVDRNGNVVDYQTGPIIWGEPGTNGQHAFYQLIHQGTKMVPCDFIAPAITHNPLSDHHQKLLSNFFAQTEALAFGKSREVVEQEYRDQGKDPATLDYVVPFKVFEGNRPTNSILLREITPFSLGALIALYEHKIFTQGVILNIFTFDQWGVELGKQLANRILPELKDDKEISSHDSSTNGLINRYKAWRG
Text: Therefore, effects of glucosamine-6-P and N-acetylglucosamine-6-P on several of the enzymes were examined.

[8] = target: glucose-6-P dehydrogenase (zwf) (Escherichia coli, UniProt P0AC53, A9V); assay: Effect of phosphorylated amino sugars on glucose-6-P dehydrogenase; assay type: biochemical; details: in vitro, FIG. 16
Sequence of glucose-6-P dehydrogenase (zwf) (P0AC53 whole entry A9V): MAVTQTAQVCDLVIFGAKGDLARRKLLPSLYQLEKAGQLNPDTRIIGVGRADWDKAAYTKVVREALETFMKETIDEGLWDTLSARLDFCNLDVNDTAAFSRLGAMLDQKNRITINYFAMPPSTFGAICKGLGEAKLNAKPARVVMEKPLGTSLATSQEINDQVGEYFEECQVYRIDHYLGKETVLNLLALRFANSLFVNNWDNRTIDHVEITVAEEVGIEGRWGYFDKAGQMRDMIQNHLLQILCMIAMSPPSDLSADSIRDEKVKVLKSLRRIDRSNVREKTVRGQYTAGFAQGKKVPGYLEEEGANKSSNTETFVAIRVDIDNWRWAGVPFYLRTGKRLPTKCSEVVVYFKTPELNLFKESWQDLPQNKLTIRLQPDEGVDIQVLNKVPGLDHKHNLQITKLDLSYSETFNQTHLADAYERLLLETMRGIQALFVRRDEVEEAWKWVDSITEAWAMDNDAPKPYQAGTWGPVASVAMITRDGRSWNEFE

[9] = target: T1, E. coli glucosamine synthase GlmS*54 (Escherichia coli, UniProt P17169, A39T/G472S/R250C); assay: Effects of phosphorylated sugars on glucosamine synthase; assay type: biochemical
T1 construct: made in house; host or cells: E. coli 7107-18 (printed '7017-18'; T7-glmS*54 integrated at galK) and strains derived from it; crude extract
Description: Glucosamine synthetase activity was examined in the presence of various phosphorylated sugars. Crude enzyme extracts was prepared from cells of 7017-18 grown in shake flasks for 24 hours with lactose induction.

[10] = system: glucosamine synthetase (GlmS); assay type: biochemical, E. coli; B. subtilis; details: crude extracts
[11] = system: glucosamine synthetase (GlmS); assay: Sensitivity of GlmS enzymes to inhibition by glucosamine-6-P (initial velocity, Ki); assay type: biochemical, E. coli; B. subtilis; details: 0-30 mM glucosamine-6-P
Description: (§1) Different glucosamine synthetase enzymes, including native B. subtillus GlmS, native E. coli GlmS and mutant E. coli GlmS, were studied in vitro. Cells of various E. coli strains were grown in the M9A medium, harvested, and frozen. Cells extracts were prepared and the glucosamine synthetases were characterized and compared.
Enzyme sensitivities to the reaction product glucosamine-6-P were examined.

[12] = system: glucosamine synthetase (GlmS); assay: Thermal stability of GlmS enzymes (denaturation at 50 C); assay type: biochemical, E. coli; details: crude extracts incubated at 50 C, sampled over 90 minutes, assayed at 25 C
Description: Denaturation at 50° C. was used to measure possible differences in thermal stability of different GlmS enzymes. Crude extracts were incubated at 50° C. and sampled over a 90-minute period. The samples were assayed for glucosamine synthetase activity at 25° C. with saturating levels of all substrates.

[13] = substrate: NC(=O)CC[C@H](N)C(=O)O; assay: GlmS (glucosamine synthase) inhibition and Michaelis-Menten kinetics, crude extract of strain 2123-12; assay type: biochemical, Escherichia coli; details: other: crude extracts, nonlinear regression
Description: as §1
(§2) Enzyme sensitivities to the reaction product glucosamine-6-P were examined. […] This figure highlights the dramatic difference between the wild type GlmS and these mutant GlmS strains.
(§3) The Mutants 2123-54 and the B. subtilis enzyme have higher Ki values (Table 6). Measured Ki constants for several of these mutants are 4 to 8 times the value for the native enzyme in strain 2123-12. From shake flask studies it is apparent that decreased sensitivity to glucosamine-6-P allows higher glucosamine levels to accumulate.
(§4) These values are slightly higher than those obtained with the native enzyme.

[14] = substrate: O=P(O)(O)OC[C@H]1OC(O)(CO)[C@@H](O)[C@@H]1O; assay: as above; assay type: biochemical, Escherichia coli; details: other: crude extracts, nonlinear regression
Description: as §1, §2, §3, §4

[15] = substrate: NC(=O)CC[C@H](N)C(=O)O; assay: GlmS inhibition and Michaelis-Menten kinetics, crude extract of strain 2123-54; assay type: biochemical, Escherichia coli; details: other: crude extracts
Description: as §1, §2, §3, §4

[16] = substrate: O=P(O)(O)OC[C@H]1OC(O)(CO)[C@@H](O)[C@@H]1O; assay: as above; assay type: biochemical, Escherichia coli; details: other: crude extracts
Description: as §1, §2, §3, §4

## CC(=O)N[C@@H](C=O)[C@@H](O)[C@H](O)[C@H](O)CO [N-acetylglucosamine, 2-acetamido-2-deoxy-D-glucose]
[1]
  time NAG was stable: at least 50 hours
[2]
  degradation based on ammonia levels: around 3.5%
[3]
  solubility in water miscible solvents: very insoluble
[4]
  drop in pH during incubation: no significant drop in pH
[4]; 80 and 40 g l-1, pH 5.5 and 7.0, M9A without glucose, two days
  degradation of N-acetyl glucosamine: No significant degradation
[4]; M9A medium, 48 hours
  amber color formation: No such color formation
[5]
  color change on heating: turned light brown
  weight loss on heating: 4.7%
E. coli 7107-18
  growth inhibition: No significant growth inhibition

## CC(=O)N[C@H]1C(O)O[C@H](COP(=O)(O)O)[C@@H](O)[C@@H]1O (stereo partly drawn) [N-acetylglucosamine-6-P, N-acetylglucosamine-6-phosphate]
[6]
  product inhibition of glucosamine N-acetyltransferase: did not show any significant product inhibition
[7]
  inhibition of phosphoglucoisomerase (Pgi): significantly less so; also recorded: does not significantly inhibit
[8]
  inhibition of glucose-6-P dehydrogenase (zwf): does not significantly inhibit
[9]
  activity at 10000 µM: 100%
  activity at 20000 µM: 100%

B1: Wild type Bacillus GlmS: wild-type Bacillus subtilis glucosamine-6-phosphate synthase (SEQ ID NO:16), expressed in E. coli strain 7107-24 (protein, listed as Bacillus subtilis)
chain: MCGIVGYIGQLDAKEILLKGLEKLEYRGYDSAGIAVANEQGIHVFKEKGRIADLREVVDANVEAKAGIGHTRWATHGEPSYLNAHPHQSALGRFTLVHNGVIENYVQLKQEYLQDVELKSDTDTEVVVQVIEQFVNGGLETEEAFRKTLTLLKGSYAIALFDNDNRETIFVAKNKSPLLVGLGDTFNVVASDAMAMLQVTNEYVELMDKEMVIVTDDQVVIKNLDGDVITRASYIAELDASDIEKGTYPHYMLKETDEQPVVMRKIIQTYQDENGKLSVPGDIAAAVAEADRIYIIGCGTSYHAGLVGKQYIEMWANVPVEVHVASEFSYNMPLLSKKPLFIFLSQSGETADSRAVLVQVKALGHKALTITNVPGSTLSREADYTLLLHAGPEIAVASTKAYTAQIAVLAVLASVAADKNGINIGFDLVKELGIAANAMEALCDQKDEMEMIAREYLTVSRNAFFIGRGLDYFVCVEGALKLKEISYIQAEGFAGGELKHGTIALIEQGTPVFALATQEHVNLSIRGNVKEVAARGANTCIISLKGLDDADDRFVLPEVNPALAPLVSVVPLQLIAYYAALHRGCDVDKPRNLAKSVTVE
[10]
  Km (fructose-6-P): very similar to the mutant E. coli enzyme GlmS*54
[11]
  sensitivity to GlcN-6-P inhibition / product resistance (in words): product resistance very comparable to the E. coli mutant GlmS enzymes

B2: WT E. coli GlmS: wild-type E. coli glucosamine-6-phosphate synthase (SEQ ID NO:2), expressed in strain 2123-12 (protein, listed as Escherichia coli)
chain: MCGIVGAIAQRDVAEILLEGLRRLEYRGYDSAGLAVVDAEGHMTRLRRLGKVQMLAQAAEEHPLHGGTGIAHTRWATHGEPSEVNAHPHVSEHIVVVHNGIIENHEPLREELKARGYTFVSETDTEVIAHLVNWELKQGGTLREAVLRAIPQLRGAYGTVIMDSRHPDTLLAARSGSPLVIGLGMGENFIASDQLALLPVTRRFIFLEEGDIAEITRRSVNIFDKTGAEVKRQDIESNLQYDAGDKGIYRHYMQKEIYEQPNAIKNTLTGRISHGQVDLSELGPNADELLSKVEHIQILACGTSYNSGMVSRYWFESLAGIPCDVEIASEFRYRKSAVRRNSLMITLSQSGETADTLAGLRLSKELGYLGSLAICNVPGSSLVRESDLALMTNAGTEIGVASTKAFTTQLTVLLMLVAKLSRLKGLDASIEHDIVHGLQALPSRIEQMLSQDKRIEALAEDFSDKHHALFLGRGDQYPIALEGALKLKEISYIHAEAYAAGELKHGPLALIDADMPVIVVAPNNELLEKLKSNIEEVRARGGQLYVFADQDAGFVSSDNMHIIEMPHVEEVIAPIFYTVPLQLLAYHVALIKGTDVDQPRNLAKSVTVE
[12]
  thermal stability at 50 C: little significant difference in thermal stability

B3: E. coli GlmS (glucosamine-6-phosphate synthase), wild type, SEQ ID NO:2 (strain 2123-12) (Escherichia coli K-12) (protein)
chain: CGIVGAIAQRDVAEILLEGLRRLEYRGYDSAGLAVVDAEGHMTRLRRLGKVQMLAQAAEEHPLHGGTGIAHTRWATHGEPSEVNAHPHVSEHIVVVHNGIIENHEPLREELKARGYTFVSETDTEVIAHLVNWELKQGGTLREAVLRAIPQLRGAYGTVIMDSRHPDTLLAARSGSPLVIGLGMGENFIASDQLALLPVTRRFIFLEEGDIAEITRRSVNIFDKTGAEVKRQDIESNLQYDAGDKGIYRHYMQKEIYEQPNAIKNTLTGRISHGQVDLSELGPNADELLSKVEHIQILACGTSYNSGMVSRYWFESLAGIPCDVEIASEFRYRKSAVRRNSLMITLSQSGETADTLAGLRLSKELGYLGSLAICNVPGSSLVRESDLALMTNAGTEIGVASTKAFTTQLTVLLMLVAKLSRLKGLDASIEHDIVHGLQALPSRIEQMLSQDKRIEALAEDFSDKHHALFLGRGDQYPIALEGALKLKEISYIHAEAYAAGELKHGPLALIDADMPVIVVAPNNELLEKLKSNIEEVRARGGQLYVFADQDAGFVSSDNMHIIEMPHVEEVIAPIFYTVPLQLLAYHVALIKGTDVDQPRNLAKSVTVE
notes: made in house; host or cells: E. coli strain 2123-12 (T7-glmS integrated in the chromosome), crude cell extract
[13]
  Km: 170 µM
[14]
  Km: 200 µM

B4: E. coli GlmS mutant GlmS*54, SEQ ID NO:6 (Ala39Thr, Arg250Cys, Gly472Ser) (strain 2123-54) (Escherichia coli K-12; A39T/G472S/R250C) (protein)
chain: CGIVGAIAQRDVAEILLEGLRRLEYRGYDSAGLAVVDTEGHMTRLRRLGKVQMLAQAAEEHPLHGGTGIAHTRWATHGEPSEVNAHPHVSEHIVVVHNGIIENHEPLREELKARGYTFVSETDTEVIAHLVNWELKQGGTLREAVLRAIPQLRGAYGTVIMDSRHPDTLLAARSGSPLVIGLGMGENFIASDQLALLPVTRRFIFLEEGDIAEITRRSVNIFDKTGAEVKRQDIESNLQYDAGDKGIYCHYMQKEIYEQPNAIKNTLTGRISHGQVDLSELGPNADELLSKVEHIQILACGTSYNSGMVSRYWFESLAGIPCDVEIASEFRYRKSAVRRNSLMITLSQSGETADTLAGLRLSKELGYLGSLAICNVPGSSLVRESDLALMTNAGTEIGVASTKAFTTQLTVLLMLVAKLSRLKGLDASIEHDIVHGLQALPSRIEQMLSQDKRIEALAEDFSDKHHALFLSRGDQYPIALEGALKLKEISYIHAEAYAAGELKHGPLALIDADMPVIVVAPNNELLEKLKSNIEEVRARGGQLYVFADQDAGFVSSDNMHIIEMPHVEEVIAPIFYTVPLQLLAYHVALIKGTDVDQPRNLAKSVTVE
notes: made in house; host or cells: E. coli strain 2123-54 (lacZ::T7-glmS*54), crude cell extract
[15]
  Km: 730 µM
[16]
  Km: 640 µM

Reference: patent publication US8124381B2, “Process and materials for production of glucosamine and N-acetylglucosamine” (Arkion Life Sciences, priority 2002, dated 2012)
